From patent US10105331B2, “Substituted aromatic compounds and pharmaceutical compositions for the prevention and treatment of diabetes” (PROMETIC PHARMA SMT LIMITED, priority 2014, dated 2018) come the findings set out here.

In data set [1] the test system is uninephrectomized db/db mice. The data set is described as follows: Diabetic mouse (db/db) model, uninephrectomized: blood glucose, insulin, glucose/insulin ratio, islet insulin staining. In kind it is in vivo. The note with it: for blood glucose level: 105 days. The procedure:
(§1) Male Lepr db (db/db) and age- and sex-matched control mice with the same genetic background (C57BL/6) were used. Animals were randomized using blood sugar measurement (5-hours starved) at week 6 and uninephrectomy (removal of right kidney) was performed. Sham animals (C57BL/6) underwent exposition of the right kidney. Animals that underwent the sham operation were given vehicle (saline) and were used as negative controls. C57BL/6 mice that were uninephrectomized were given vehicle and were used as positive controls. Db/db mice were treated with oral administration of compound I at 10 and 50 mg/kg per day for 105 days. Serum glucose was measured every two to four weeks.

The subject of data set [2] is uninephrectomized db/db mice. The data set is described as follows: Blood triglycerides level in serum of uninephrectomized db/db mice. In kind it is in vivo. The note with it: 10 or 50 mg/kg. The procedure:
as §1
It is known that blood triglycerides is often associated with diabetes. High triglyceride levels in the blood tend to coexist with low levels of HDL (“good”) cholesterol, contributing to a condition called diabetic dyslipidemia. It is also known that a combination of high triglycerides, low HDL and central obesity are the hallmarks of the metabolic syndrome, which occurs in a majority people with type 2 diabetes.

The next data set relates to β-TC-6 cells. The data set is described as follows: Glucose-induced insulin secretion by β-TC-6 cells (insulin ELISA of supernatants). The format is cell-based. As to conditions: for % Control (insulin secretion, individual values) / Average % Control (insulin secretion): β-TC-6 cells; for Insulin: glucose-induced insulin secretion by β-TC-6 cells, stimulation of 11 mM glucose, control 53. The procedure: β-TC-6 cells where used to determine if compounds according to the present invention were able to induce the production of insulin with or without stimulation with glucose. Briefly, β-TC-6 cells (200,000 cells/ml) were incubated in DMEM media and 15% heat inactivated serum in presence of absence of glucose (0.8M) with/without Compound I for 30 minutes and further incubated for 2 hours with a solution of Krebs containing 2.5, 11 and 25 mM glucose. Supernatants were collected and used for the detection of insulin (ELISA) performed as recommended by the supplier.

Where [3] appears, read: 50 mg/kg per day oral, NX db/db mice.
Setting [4] is: uninephrectomized db/db mice, dose not stated in legend.
[5] abbreviates: glucose 11 mM, Compound I 40 μM.
Setting [6] is: glucose 11 mM, Compound I 80 μM.

Values joined by “and” are separate entries in the source; they are usually repeats but may differ in a detail not shown here. Equal entries are not always repeated.

In the case of `CCCCCc1cc(CCCCC)cc(CC(=O)[O-])c1.[Na+]` [Compound I, Sodium 2-[3,5-Dipentylphenyl]acetate], the melting point was 225 to 230 °C. The blood glucose level entry in data set [1] (10 mg/kg per day oral, compared to NX db/db) is reported as “reduces blood glucose compare to NX db/db but stay stable over time”. In data set [1] (10 mg/kg per day oral, NX db/db mice), the insulin level entry is reported as “keeps a high insulin level (stabilization compare to Day 0)”. In addition, in data set [1] (setting [3]), the blood glucose level entry is listed as “induces a significant decrease in blood glucose to a normal level” and the insulin level entry is given as “reduces the insulin level close to a normal level”. Moreover, in data set [1] (both concentrations (10 or 50 mg/kg), db/db Nx mice), the “histoimmunostaining of insulin in the pancreatic islets” value is listed as “reverses the loss of insulin detection”. In addition, the “glucose/insulin ratio (insulin resistance)” value in data set [1] (day 33, uninephrectomized db/db mice) is given as “reduces the glucose/insulin ratio”. The “glucose/insulin ratio (insulin resistance)” value in data set [1] (day 105, uninephrectomized db/db mice) is given as “reduces the glucose/insulin ratio”. Further, in data set [1] (setting [4]), the “blood glucose level (FIG. 1 legend)” value was “reduces blood glucose level down to normal level” and the “insulin secretion (FIG. 2 legend)” value is listed as “reverses the fall of insulin secretion”. In addition, the “blood triglyceride level in serum” value in data set [2] is “reduced the blood triglyceride level”. Further, in the data set with β-TC-6 cells (setting [5]), the “% Control (insulin secretion, individual values)” value is 195.41 % Control and 187.16 % Control and 135.78 % Control and 149.35 % Control and 151.88 % Control and 143.13 % Control; the “Average % Control (insulin secretion)” value came to 160.45 % Control. Moreover, in the data set on β-TC-6 cells (setting [6]), the “% Control (insulin secretion, individual values)” value was 192.66 % Control and 174.31 % Control and 203.67 % Control and 145.51 % Control and 129.29 % Control and 200.78 % Control; the “Average % Control (insulin secretion)” value was determined as 174.37 % Control. Moreover, the Insulin in the data set on β-TC-6 cells was 76 ng/mL. Also, in the data set with β-TC-6 cells (no glucose, Compound I 40 μM), the “% Control (insulin secretion, individual values)” value is 53.76 % Control and 86.02 % Control and 47.31 % Control and 155.22 % Control and 135.63 % Control and 130.81 % Control; the “Average % Control (insulin secretion)” value was 101.46 % Control. Further, in the data set on β-TC-6 cells (no glucose, Compound I 80 μM), the “% Control (insulin secretion, individual values)” value is 79.57 % Control and 38.71 % Control and 70.97 % Control and 123.28 % Control and 114.63 % Control and 177.33 % Control; the “Average % Control (insulin secretion)” value was found to be 100.75 % Control. For the same compound, in the data set on β-TC-6 cells (with or without glucose), the “glucose-induced insulin production in β-TC-6 cells” value is recorded as “increased with Compound I in presence of glucose only”.

On to `CCCCCCc1cc(CCCCCC)cc(CC(=O)[O-])c1.[Na+]` [Compound II, Sodium Salt of 2-(3,5-Dihexylphenyl)acetic acid], for which the Insulin with β-TC-6 cells was 123 ng/mL.

In the data set on β-TC-6 cells, `CCCCCc1cc(CCCCC)c(O)c(CC(=O)[O-])c1.[Na+]` [Compound III, Sodium Salt of 2-(2-Hydroxy-3,5-dipentylphenyl)acetic acid] returned an Insulin of 109 ng/mL.

With `CCCCCCc1cc(CCCCCC)c(O)c(CC(=O)[O-])c1.[Na+]` [Compound IV, Sodium Salt of 2-(3,5-Dihexyl-2-hydroxyphenyl)acetic acid], the Insulin in the data set on β-TC-6 cells turned out to be 147 ng/mL.

Regarding `CCCCCc1cc(CCCCC)c(Cc2ccccc2)c(CC(=O)[O-])c1.[Na+]` [Compound IX, Sodium Salt of 2-(2-Benzyl-3,5-dipentylphenyl)acetic Acid], the Insulin with β-TC-6 cells came to 110 ng/mL.

For `CCCCCc1cc(CC(=O)[O-])cc(CCCCC)c1O.[Na+]` [Compound V, Sodium Salt of 2-(4-Hydroxy-3,5-dipentylphenyl)acetic acid], the Insulin in the data set with β-TC-6 cells was determined as 59 ng/mL.

Regarding `CCCCCCc1cc(CC(=O)[O-])cc(CCCCCC)c1O.[Na+]` [Compound VI, Sodium Salt of 2-(3,5-Dihexyl-4-hydroxyphenyl)acetic acid], the Insulin with β-TC-6 cells came to 67 ng/mL.

`CCCCCc1cc(CC(=O)[O-])cc(CCCCC)c1F.[Na+]` [Compound VIII, Sodium Salt of 2-(4-Fluoro-3,5-dipentylphenyl)acetic acid]: the Insulin in the data set on β-TC-6 cells came out at 64 ng/mL.

`CCC/C=C/c1cc(/C=C/CCC)cc(CC(=O)[O-])c1.[Na+]` [Compound X, Sodium 2-[3,5-Di[(E)-Pent-1-enyl]phenyl]acetate] showed an Insulin with β-TC-6 cells of 102 ng/mL.

In the data set with β-TC-6 cells, `CCCCCc1cc(CCCCC)cc(CCC(=O)[O-])c1.[Na+]` [Compound XI, Sodium 3-[3,5-Dipentylphenyl]propanoate] registered an Insulin of 89 ng/mL.

For `CCCC/C=C/c1cc(/C=C/CCCC)cc(CC(=O)[O-])c1.[Na+]` [Compound XII, Sodium Salt of 2-(3,5-Di((E)-hex-1-enyl)phenyl)acetic acid], the Insulin in the data set with β-TC-6 cells is 70 ng/mL.
